Tests used:
[1] = Optical properties of ICG; format: physicochemical; conditions: 785 nm excitation
Excerpt: The ability of the handheld spectroscopic pen device to differentiate contrast agent signals from the autofluorescence and Raman scattering of major tissue/organ types (i.e. fat, liver and lung) was first examined. […] At 785 nm excitation, ICG has a fluorescence peak at 816 nm, while fat has a background fluorescence peak at 805 nm plus resolvable Raman signals at 862, 1070, 1297, 1439, and 1652 cm^−1 (corresponding to 842, 857, 874, 885, and 902 nm in wavelength, respectively). ICG buried in fat has identifiable contributions of both ICG and fat (e.g., ICG fluorescence at 816 nm and the fat Raman peaks at 874 and 885 nm).

[2] = after intravenous administration, bound to serum proteins; cited from earlier work
[3] = stated as known; cited from earlier work
4T1 breast tumors = assay: In vivo and intra-operative tumor detection with handheld spectroscopic pen device; design: species or system mouse; conditions: ICG 357 μg/kg i.v.
Experimental: All in vivo murine studies were performed under an approved protocol by the Emory University IACUC. The mouse mammary carcinoma cell line 4T1, which stably expresses a firefly luciferase gene, was obtained from Dr. Lily Yang at Emory University (Atlanta, Ga.). 4T1 cells were cultured in DMEM containing 10% FBS and 1× antibiotic/antimycotic agent. Prior to injection into mice, the cells were washed two times with PBS and diluted in sterile PBS to a final concentration of 2×10^7 cells/mL. Mammary tumors were inoculated into nude mice by the subcutaneous administration of 2×10^6 4T1 cells into the mouse flank. Once the tumors were approximately 4 mm in diameter, ICG was administered intravenously (i.v.) via a tail vein at a dose of 357 μg/kg. After 24 h, mice were anesthetized by intraperitoneal (i.p.) injection of a 2.5% solution of tribromoethanol (350 mg/kg). Tumor-bearing mice undergoing bioluminescence imaging were administered i.p. 100 μL, of a luciferin solution (30 mg/mL). Bioluminescent images were acquired on a Kodak In-Vivo FX Imaging System from Carestream Molecular Imaging (Rochester, N.Y.). Corresponding bright-field images were taken for anatomical reference of the bioluminescence signal. A series of spectra were acquired on tumor-bearing mice using the handheld spectroscopic pen device. First, the position of the handheld spectroscopic pen device was fixed to about 1-2 cm above the location of the acquisition area on the mouse. Spectra were collected in 1 s and were obtained from several locations, including directly over the center of the tumor and the peritumoral region. After the spectra were acquired, the integrated signal intensity was calculated. The signal intensity was compared to both the bright-field anatomical location and the bioluminescence signal.
In vivo investigations were conducted to test the ability of the handheld spectroscopic pen device to detect intratumoral deposition of ICG after intravenous infusion. This contrast agent has been approved by the U.S. Food and Drug Administration (FDA) and is indicated for various uses in humans, such as for determining cardiac output, hepatic function and liver blood flow, and for ophthalmic angiography. To assess degree of tumor contrast enhancement using ICG, mice were used in which 4T1 tumor cells (2×10^6 in number) were subcutaneously injected 18 days prior to imaging. The tumor cells were genetically engineered to express the firefly luciferase gene; intravenous injection of luciferin after tumor development causes these cells to emit bioluminescent light and allows one to determine the precise location of tumors using bioluminescence imaging. […]

[4] = Inspection of internal organs and behavior for toxicity in Apcmin/+ mice
Experimental: This study was conducted in two mice. Two mice were injected with 2 mg/kg ICG. One mouse received ICG intravenously via a tail vein. The other mouse was administered ICG intraperitoneally. After ICG had circulated for 20 h, the mice were euthanized, the lower GI was removed, washed extensively, sectioned roughly into four segments; duodenum, jejunum, ilium, and cecum and colon, and formalin fixed. The mice were then imaged using the integrated imaging and spectroscopy imaging system as provided in this disclosure.
Since these doses were at the maximum recommended dose, the internal organs were briefly inspected for any aberrant signs of toxicity.

polyps = assay: Detection of murine GI polyps (Apcmin/+ FAP model) with SpectroPen; format: in vivo, mouse
Experimental: This example describes the detection of polyps in the murine FAP model, Apcmin/+. This study was conducted in two mice. Two mice were injected with 2 mg/kg ICG. One mouse received ICG intravenously via a tail vein. The other mouse was administered ICG intraperitoneally. After ICG had circulated for 20 h, the mice were euthanized, the lower GI was removed, washed extensively, sectioned roughly into four segments; duodenum, jejunum, ilium, and cecum and colon, and formalin fixed. The mice were then imaged using the integrated imaging and spectroscopy imaging system as provided in this disclosure.
Intestinal segments were rinsed with PBS. […] Next the “SpectroPen” handheld probe was placed 1 cm above the intestinal tissue and clamped into that position for consistent repetitive acquisitions. The 1 cm space between the SpectroPen and the tissue correlates roughly to a 1 mm laser spot size. • 3. Spectra were acquired and recorded from apparently healthy sections of the intestine (considered background signal), and polyps. An integration time of 1 s was utilized. • 4.

## CC1(C)C(/C=C/C=C/C=C/C=C2\N(CCCCS(=O)(=O)O)c3ccc4ccccc4c3C2(C)C)=[N+](CCCCS(=O)(=O)[O-])c2ccc3ccccc3c21 [ICG, Indocyanine green]
[1]
  fluorescence peak: 816 nm
[2]
  hydrodynamic size (diameter) after protein binding: 6-8 nm
[3]
  route of excretion: secreted entirely into bile
4T1 breast tumors; after surgical removal
  signal of excised tumors vs surgical cavity: 10 fold
4T1 breast tumors; mice with 4T1 tumors, 24 h
  integrated signal intensity, tumor areas vs normal regions: ~10 times
  signal at adjacent edges (less than 2 mm from the tumor) vs more remote areas: 5-6 times
4T1 breast tumors; residual tumor at margin of cavity
  ICG signal at positive surgical margin vs adjacent tissue: 5 times
[4]; 2 mg/kg ICG intraperitoneally, 20 h, patent attributes to anemia from polyps
  appearance of internal organs: pale color was immediately noticed, especially in the liver and kidneys
[4]; 2 mg/kg ICG via tail vein
  behavioral changes: no dramatic behavioral changes
polyps; 2 mg/kg ICG intraperitoneally, 20 h, GI tract ex vivo
  ICG signal in polyps vs background: greater than in the background
polyps; 2 mg/kg ICG intravenously, 20 h, GI tract ex vivo
  ICG signal in polyps vs background tissue: higher signal in polyps then in the background tissue
polyps; 2 mg/kg ICG, 20 after injection
  signal in GI tract, i.p. vs i.v. route: larger signal in the GI tract compared to mouse injected i.v.
polyps; Apcmin/+ mouse, colon, 2 mg/kg ICG i.v., 20 h
  signal from colon polyp compared to background: ≥ 5 fold
